Results reported in paper PMC12250302, “Synthesis, Antimicrobial Activities, and Model of Action of Novel Tetralone Derivatives Containing Aminoguanidinium Moiety” (International Journal of Molecular Sciences, 2025).
Values after ≈ are worked out from the molar mass of the structure shown. Read-outs that look alike come from different tables or passages of the source. Each block holds one compound with its values, some of them ahead of it.

Experiments:
Experiment in all cases: MIC and MBC testing, broth microdilution
E. faecium ATCC 35667 = type: cell-based, Enterococcus faecium; conditions: E. faecium ATCC 35667; for MIC: 18 h
Excerpt: (§1) The minimum inhibitory concentrations (MICs) and minimum bactericidal concentrations (MBCs) of the synthesized compounds effective against ESKAPE strains, S. aureus clinical isolates, and MRSA were investigated by the broth dilution method. Levofloxacin is a broad-spectrum antibacterial agent that is widely used in the treatment of ESKAPE infections. Therefore, levofloxacin was selected as the positive control for the preliminary activity screening. DMSO (0.1%) was selected as the negative control.
(§2) The minimum inhibitory concentration (MIC) of all synthesized compounds was tested by the broth microdilution method. In brief, compounds dissolved in DMSO were diluted twice continuously in a 96-well plate with MH broth. The ESKAPE pathogens (E. coli ATCC 25922, S. aureus ATCC 29213, K. pneumoniae ATCC 700603, A. baumannii ATCC 19606, P. aeruginosa ATCC 27853, and E. faecium ATCC 35667), clinical S. aureus isolates (LMY45, LMY46, LMY47, and LMY48) and methicillin-resistant Staphylococcus aureus (MRSA-1 and MRSA-2) were cultured in MH broth to logarithmic growth phase and then diluted to 1 × 10^6 CFU/mL in MH broth. Subsequently, the diluted bacterial solution was mixed with the diluted compound solution in a 96-well plate and incubated at 37 °C for a duration of 18 h. The MIC of the compounds was recorded as the lowest concentration at which no visible growth was observed. […] Each concentration was replicated thrice.

S. aureus ATCC 29213 = type: cell-based, Staphylococcus aureus; conditions: S. aureus ATCC 29213; for MIC: 18 h
Excerpt: as §1, §2

[1] = tested on: K. pneumoniae ATCC 700603; type: cell-based, Klebsiella pneumoniae
Excerpt: as §1, §2

A. baumannii ATCC 19606 = type: cell-based, Acinetobacter baumannii
Excerpt: as §1, §2

P. aeruginosa ATCC 27853 = type: cell-based, Pseudomonas aeruginosa
Excerpt: as §1, §2

E. coli ATCC 25922 = type: cell-based, Escherichia coli
Excerpt: as §1, §2

MRSA-1 = type: cell-based, Staphylococcus aureus; conditions: MRSA-1; for MIC: 18 h
Protocol: (§3) Furthermore, the MBC values of the compounds were detected.
as §2, with “h.” for “h. The MIC of the compounds was recorded as the lowest concentration at which no visible growth was observed.”

MRSA-2 = type: cell-based, Staphylococcus aureus; conditions: MRSA-2; for MIC: 18 h
Protocol: as §3
as §2, with “h.” for “h. The MIC of the compounds was recorded as the lowest concentration at which no visible growth was observed.”

[2] = tested on: clinical S. aureus isolate LMY45; type: cell-based, Staphylococcus aureus; conditions: LMY45; for MIC: 18 h
Protocol: as §3
as §2, with “h.” for “h. The MIC of the compounds was recorded as the lowest concentration at which no visible growth was observed.”

[3] = tested on: clinical S. aureus isolate LMY46; type: cell-based, Staphylococcus aureus; conditions: LMY46; for MIC: 18 h
Protocol: as §3
as §2, with “h.” for “h. The MIC of the compounds was recorded as the lowest concentration at which no visible growth was observed.”

[4] = tested on: clinical S. aureus isolate LMY47; type: cell-based, Staphylococcus aureus; conditions: LMY47; for MIC: 18 h
Protocol: as §3
as §2, with “h.” for “h. The MIC of the compounds was recorded as the lowest concentration at which no visible growth was observed.”

[5] = tested on: clinical S. aureus isolate LMY48; type: cell-based, Staphylococcus aureus; conditions: LMY48; for MIC: 18 h
Protocol: as §3
as §2, with “h.” for “h. The MIC of the compounds was recorded as the lowest concentration at which no visible growth was observed.”

[6] = Enterococcus faecium, ATCC35667, read-out: MIC
[7] = Enterococcus faecium, ATCC35667, read-out: MBC
[8] = Staphylococcus aureus, ATCC29213, read-out: MIC
[9] = Klebsiella pneumoniae, ATCC700603, 18 h, read-out: MIC
[10] = Acinetobacter baumannii, ATCC19606, 18 h, read-out: MIC
[11] = Pseudomonas aeruginosa, ATCC27853, 18 h, read-out: MIC
[12] = Escherichia coli, ATCC25922, 18 h, read-out: MIC
[13] = Staphylococcus aureus, read-out: MIC
[14] = Staphylococcus aureus, read-out: MBC

MIC (E. faecium ATCC 35667; [6]): 4 µg/mL (≈ 10.7 µM)
MIC (S. aureus ATCC 29213; [8]): > 32 µg/mL
MIC [1, 9]: > 32 µg/mL
MIC (A. baumannii ATCC 19606; [10]): > 32 µg/mL
MIC (P. aeruginosa ATCC 27853; [11]): > 32 µg/mL
MIC (E. coli ATCC 25922; [12]): > 32 µg/mL
MIC (MRSA-1; [13]): 4 µg/mL (≈ 10.7 µM)
MIC (MRSA-2; [13]): 4 µg/mL (≈ 10.7 µM)
MIC [2, 13]: 4 µg/mL (≈ 10.7 µM)
MIC [3, 13]: 2 µg/mL (≈ 5.37 µM)
MIC [4, 13]: 2 µg/mL (≈ 5.37 µM)
MIC [5, 13]: 4 µg/mL (≈ 10.7 µM)
Compound: [H]/N=C(\N)NN=C1CCCc2cc(OCCCCCCCCCCC)ccc21 [Compound 2H, (E)-2-(6-(undecyloxy)-3,4-dihydronaphthalen-1(2H)-ylidene)hydrazine-1-carboximidamide]
MBC (E. faecium ATCC 35667; [7]): 8 µg/mL (≈ 21.5 µM)
MBC (MRSA-1; [14]): 16 µg/mL (≈ 42.9 µM)
MBC (MRSA-2; [14]): 16 µg/mL (≈ 42.9 µM)
MBC [2, 14]: 8 µg/mL (≈ 21.5 µM)
MBC [3, 14]: 16 µg/mL (≈ 42.9 µM)
MBC [4, 14]: 16 µg/mL (≈ 42.9 µM)
MBC [5, 14]: 4 µg/mL (≈ 10.7 µM)

Compound: (E)-2-(6-((4-chlorobenzyl)oxy)-3,4-dihydro-1(2H)-naphthalenylidene)hydrazine-1-carboxamide [Compound 1N]
MBC (E. faecium ATCC 35667): 8 µg/mL
MIC (E. faecium ATCC 35667): 2 µg/mL
MBC (S. aureus ATCC 29213): 4 µg/mL
MIC (S. aureus ATCC 29213): 2 µg/mL
MBC [1]: 32 µg/mL
MIC ([1]; 18 h): 16 µg/mL
MBC (A. baumannii ATCC 19606): 16 µg/mL
MIC (A. baumannii ATCC 19606; 18 h): 4 µg/mL
MBC (P. aeruginosa ATCC 27853): 32 µg/mL
MIC (P. aeruginosa ATCC 27853; 18 h): 16 µg/mL
MBC (E. coli ATCC 25922): 8 µg/mL
MIC (E. coli ATCC 25922; 18 h): 4 µg/mL
MBC (MRSA-1): 4 µg/mL
MIC (MRSA-1): 2 µg/mL
MBC (MRSA-2): 4 µg/mL
MIC (MRSA-2): 2 µg/mL
MBC [2]: 4 µg/mL
MIC [2]: 2 µg/mL
MBC [3]: 8 µg/mL
MIC [3]: 4 µg/mL
MBC [4]: 2 µg/mL
MIC [4]: 2 µg/mL
MBC [5]: 16 µg/mL
MIC [5]: 2 µg/mL

Compound: (E)-2-(6-((3,4-dichlorobenzyl)oxy)-3,4-dihydro-1(2H)-naphthalenylidene)hydrazine-1-carboxamide [Compound 1P]
MBC (E. faecium ATCC 35667): 8 µg/mL
MIC (E. faecium ATCC 35667): 2 µg/mL
MBC (S. aureus ATCC 29213): 8 µg/mL
MIC (S. aureus ATCC 29213): 2 µg/mL
MBC [1]: 32 µg/mL
MIC ([1]; 18 h): 32 µg/mL
MBC (A. baumannii ATCC 19606): 16 µg/mL
MIC (A. baumannii ATCC 19606; 18 h): 8 µg/mL
MIC (P. aeruginosa ATCC 27853; 18 h): >32/- µg/mL
MBC (E. coli ATCC 25922): 16 µg/mL
MIC (E. coli ATCC 25922; 18 h): 8 µg/mL
MBC (MRSA-1): 16 µg/mL
MIC (MRSA-1): 1 µg/mL
MBC (MRSA-2): 4 µg/mL
MIC (MRSA-2): 2 µg/mL
MBC [2]: 4 µg/mL
MIC [2]: 2 µg/mL
MBC [3]: 8 µg/mL
MIC [3]: 2 µg/mL
MBC [4]: 4 µg/mL
MIC [4]: 2 µg/mL
MBC [5]: ≤ 1 µg/mL
MIC [5]: ≤ 1 µg/mL

MIC (E. faecium ATCC 35667; [6]): 2 µg/mL (≈ 5.58 µM)
MIC (S. aureus ATCC 29213; [8]): 2 µg/mL (≈ 5.58 µM)
MIC [1, 9]: > 32 µg/mL
MIC (A. baumannii ATCC 19606; [10]): > 32 µg/mL
MIC (P. aeruginosa ATCC 27853; [11]): > 32 µg/mL
MIC (E. coli ATCC 25922; [12]): > 32 µg/mL
MIC (MRSA-1; [13]): 4 µg/mL (≈ 11.2 µM)
MIC (MRSA-2; [13]): 4 µg/mL (≈ 11.2 µM)
MIC [2, 13]: 4 µg/mL (≈ 11.2 µM)
MIC [3, 13]: 4 µg/mL (≈ 11.2 µM)
MIC [4, 13]: 2 µg/mL (≈ 5.58 µM)
MIC [5, 13]: 2 µg/mL (≈ 5.58 µM)
Compound: [H]/N=C(\N)NN=C1CCCc2cc(OCCCCCCCCCC)ccc21 [Compound 2G, (E)-2-(6-(decyloxy)-3,4-dihydronaphthalen-1(2H)-ylidene)hydrazine-1-carboximidamide]
MBC (E. faecium ATCC 35667; [7]): 8 µg/mL (≈ 22.3 µM)
MBC (S. aureus ATCC 29213; Staphylococcus aureus, ATCC29213, read-out: MBC): 8 µg/mL (≈ 22.3 µM)
MBC (MRSA-1; [14]): 16 µg/mL (≈ 44.6 µM)
MBC (MRSA-2; [14]): 4 µg/mL (≈ 11.2 µM)
MBC [2, 14]: 16 µg/mL (≈ 44.6 µM)
MBC [3, 14]: 8 µg/mL (≈ 22.3 µM)
MBC [4, 14]: 2 µg/mL (≈ 5.58 µM)
MBC [5, 14]: 4 µg/mL (≈ 11.2 µM)
